Reference: patent US11331338B2, “Hydrogen sulfide releasing polymer compounds” (CROMA-PHARMA GESELLSCHAFT M.B.H., priority 2016, dated 2022)

Tests used:
[1] = Detection of released H2S by embrowning Pb-acetate paper after thiol addition; conditions: excess amounts of L-cysteine or cysteamine
Procedure: 850 mg polymer was obtained as a white, fibrous product with an estimated molecular weight of 270 kDa (based on the starting material) and a degree of modification with H2S releasing perthiol structures of […] polymer. This corresponds to a conversion rate of 98% of the thiol moieties of the polymer used as starting material. […] Emerging H2S was detected by embrowning Pb-acetate paper.
This finding was later confirmed by detecting H2S release after addition of excess amounts of L-cysteine or cysteamine to 4-amino-N-(benzoylthio)benzamide via embrowning Pb-acetate paper.

[2] = Olfactory test for H2S liberation; conditions: dissolved in acetone/phosphate buffer, excess L-cysteine
[3] = tested on: immortalized human microvascular endothelial cells (HMEC-1); test: Cell compatibility / proliferation (WST-1); assay type: cell-based; conditions: HMEC-1 compared with the other cell types
Excerpt: In order to study cell compatibility, especially the effect of proliferation, the H2S releasing hyaluronic acid derivative according to FIG. 1A (s. above,) was investigated in comparison with unmodified HA (sodium salt of hyaluronic acid, “NA HA”) and an […] thiolated hyaluronic acid (“Thiomer CAPPY”). As further control, the well established commercially available H2S donor N-(benzoylthio)benzamide (Donor 5a is NSHD1, a small molecule with a thiol activation mechanism) was included in the experiments.
Three types of skin cells were used as models: primary human dermal fibroblasts (dFb), the immortalized line of human microvascular endothelial cells (HMEC-1) and the keratinocyte cell line HaCat. The cells were cultured in their appropriate medium. Synthetic medium Fibrolife with supplements and gentamycin was used for dFb, EBM+supplements was used for HMEC-1 and DMEM with 10% FCS and 1% CellShield was used for HaCat cells. Furthermore, 3 mM cysteine was added to all conditions investigated. […] Cells were seeded and grown at least overnight before medium was changed and the HA components were added according to the agreed protocol. […] Cell proliferation was measured indicated by using a WST-1-based colorimetric detection reagent according to manufacturers' protocol with fresh medium without addition of any HA-derivative. […]

Structure (SMILES) | H2S release detected by Pb-acetate paper [1] | H2S liberation, olfactory test [2] | sensitivity of endothelial cells to H2S [3]
Nc1ccc(C(=O)NSC(=O)c2ccccc2)cc1 [4-amino-N-(benzoylthio)benzamide] | H2S release | indicated H2S liberation | –
O=C(NSC(=O)c1ccccc1)c1ccccc1 [Donor 5a, N-(benzoylthio)benzamide] | – | – | most sensitive
